# From patent US6914045B2, “Glycopeptide antibiotics” (Wyeth Holdings Corporation, priority 2001, dated 2005)
# Assays:
# Assay in all cases: in vitro antibacterial evaluation, MIC by broth dilution
# Assay type in all cases: cell-based
# Enterococcus sp. = settings: broth dilution, 18 hours at 35° C.
# Summary of the method: (§1)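 Broth dilution per NCCLS standard M7-A2 in Muller-Hinton II […], with an inoculum of 5×10^5 CFU/mL and antibiotic spanning 64-0.06 μg/mL. The MIC is the lowest concentration that inhibits growth of the organism.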
# Escherichia coli = settings: 18 hours at 35° C.
# Summary of the method: as §1
# Staphylococcus sp. = settings: broth dilution, 18 hours at 35° C.
# Summary of the method: as §1
# Streptococcus sp. = settings: broth dilution, 18 hours at 35° C.
# Summary of the method: as §1
structure (smiles),measurement,setting,value
"CC(c1ccccc1)C1NC(=O)CNC(=O)C(CO)NC(=O)C(C(O)C2CNC(=N)N2C2OC(CO)C(O)C(O)C2O)NC(=O)C(C(O)C2CNC(=N)N2)NC(=O)C(Cc2ccc(OC3OC(CO)C(OC4OC5COC(c6cccc(O)c6)OC5C(O)C4O)C(O)C3O)cc2)NC1=O (stereo not drawn) [Example 136, Cyclo[glycyl-β-methylphenylalanyl-O-[4-O-[4,6-O-(3-hydroxybenzylidene)hexopyranosyl]-hexopyranosyl]tyrosyl-3-(2-iminoimidazolidin-4-yl)seryl-3-(3-hexopyranosyl-2-iminoimidazolidin-4-yl)serylseryl]]",MIC Enterococcus avium (GC 4558),Enterococcus sp.; Enterococcus avium (GC 4558),64 µg/mL
same,MIC Enterococcus faecalis (ATCC 29212),Enterococcus sp.; Enterococcus faecalis (ATCC 29212),>64 µg/mL
same,MIC Enterococcus faecalis (GC 2242),Enterococcus sp.; Enterococcus faecalis (GC 2242),64 µg/mL
same,MIC Enterococcus faecalis (GC 2691),Enterococcus sp.; Enterococcus faecalis (GC 2691),>64 µg/mL
same,MIC Enterococcus faecalis (GC 3059),Enterococcus sp.; Enterococcus faecalis (GC 3059),>64 µg/mL
same,MIC Enterococcus faecalis (GC 4552),Enterococcus sp.; Enterococcus faecalis (GC 4552),>64 µg/mL
same,MIC Enterococcus faecalis (GC 4553),Enterococcus sp.; Enterococcus faecalis (GC 4553),>64 µg/mL
same,MIC Enterococcus faecalis (GC 4554),Enterococcus sp.; Enterococcus faecalis (GC 4554),>64 µg/mL
same,MIC Enterococcus faecalis (GC 6189),Enterococcus sp.; Enterococcus faecalis (GC 6189),64 µg/mL
same,MIC Enterococcus faecium (GC 2243),Enterococcus sp.; Enterococcus faecium (GC 2243),>64 µg/mL
same,MIC Enterococcus faecium (GC 4556),Enterococcus sp.; Enterococcus faecium (GC 4556),64 µg/mL
same,MIC Enterococcus faecium (GC 4557),Enterococcus sp.; Enterococcus faecium (GC 4557),8 µg/mL
same,MIC Enterococcus faecalis (ATCC 29212),Enterococcus sp.; strain ATCC 29212,>64 µg/mL
same,MIC Enterococcus faecalis (GC 2242),Enterococcus sp.; strain GC 2242,64 µg/mL
same,MIC Enterococcus faecium (GC 2243),Enterococcus sp.; strain GC 2243,>64 µg/mL
same,MIC Enterococcus faecalis (GC 2691),Enterococcus sp.; strain GC 2691,>64 µg/mL
same,MIC Enterococcus faecalis (GC 3059),Enterococcus sp.; strain GC 3059,>64 µg/mL
same,MIC Enterococcus faecalis (GC 4552),Enterococcus sp.; strain GC 4552,>64 µg/mL
same,MIC Enterococcus faecalis (GC 4553),Enterococcus sp.; strain GC 4553,>64 µg/mL
same,MIC Enterococcus faecalis (GC 4554),Enterococcus sp.; strain GC 4554,>64 µg/mL
same,MIC Enterococcus faecium (GC 4556),Enterococcus sp.; strain GC 4556,64 µg/mL
same,MIC Enterococcus faecium (GC 4557),Enterococcus sp.; strain GC 4557,8 µg/mL
same,MIC Enterococcus avium (GC 4558),Enterococcus sp.; strain GC 4558,64 µg/mL
same,MIC Enterococcus faecalis (GC 6189),Enterococcus sp.; strain GC 6189,64 µg/mL
same,MIC Escherichia coli (ATCC 25922),Escherichia coli; strain ATCC 25922,>64 µg/mL
same,MIC Escherichia coli (GC 4559),Escherichia coli; strain GC 4559,>64 µg/mL
same,MIC Escherichia coli (GC 4560),Escherichia coli; strain GC 4560,4 µg/mL
same,MIC Staphylococcus aureus (ATCC 29213),Staphylococcus sp.,16 µg/mL
same,MIC Staphylococcus aureus (GC 1131),Staphylococcus sp.,16 µg/mL
same,MIC Staphylococcus aureus (GC 3051),Staphylococcus sp.,16 µg/mL
same,MIC Staphylococcus aureus (GC 3053),Staphylococcus sp.,32 µg/mL
same,MIC Staphylococcus aureus (GC 4541),Staphylococcus sp.,8 µg/mL
same,MIC Staphylococcus aureus (GC 4542),Staphylococcus sp.,16 µg/mL
same,MIC Staphylococcus aureus (GC 4544),Staphylococcus sp.,16 µg/mL
same,MIC Staphylococcus aureus (GC 4545),Staphylococcus sp.,16 µg/mL
same,MIC Staphylococcus aureus (GC 1131),"Staphylococcus sp.; inoculum 5×10^5 CFU/mL, strain GC 1131",16 µg/mL
same,MIC Staphylococcus aureus (ATCC 29213),Staphylococcus sp.; strain ATCC 29213,16 µg/mL
same,MIC Staphylococcus aureus (GC 3051),Staphylococcus sp.; strain GC 3051,16 µg/mL
same,MIC Staphylococcus aureus (GC 3053),Staphylococcus sp.; strain GC 3053,32 µg/mL
same,MIC Staphylococcus aureus (GC 4541),Staphylococcus sp.; strain GC 4541,8 µg/mL
same,MIC Staphylococcus aureus (GC 4542),Staphylococcus sp.; strain GC 4542,16 µg/mL
same,MIC Staphylococcus aureus-SMITH (GC 4543),Staphylococcus sp.; strain GC 4543,16 µg/mL
same,MIC Staphylococcus aureus (GC 4544),Staphylococcus sp.; strain GC 4544,16 µg/mL
same,MIC Staphylococcus aureus (GC 4545),Staphylococcus sp.; strain GC 4545,16 µg/mL
same,MIC Staphylococcus haemolyticus (GC 4546),Staphylococcus sp.; strain GC 4546,16 µg/mL
same,MIC Coagulase Negative Staphylococcus (GC 4547),Staphylococcus sp.; strain GC 4547,8 µg/mL
same,MIC Coagulase Negative Staphylococcus (GC 4548),Staphylococcus sp.; strain GC 4548,8 µg/mL
same,MIC Coagulase Negative Staphylococcus (GC 4549),Staphylococcus sp.; strain GC 4549,4 µg/mL
same,MIC Coagulase Negative Staphylococcus (GC 4551),Staphylococcus sp.; strain GC 4551,32 µg/mL
same,MIC Coagulase Negative Staphylococcus (GC 6257),Staphylococcus sp.; strain GC 6257,4 µg/mL
same,MIC Staphylococcus aureus-SMITH (GC 4543),Staphylococcus sp.; strain SMITH GC 4543,16 µg/mL
same,MIC Streptococcus agalactiae (GC 4564),Streptococcus sp.; Streptococcus agalactiae (GC 4564),8 µg/mL
same,MIC Streptococcus pneumoniae (ATCC 6301),Streptococcus sp.; Streptococcus pneumoniae (ATCC 6301),2 µg/mL
same,MIC Streptococcus pneumoniae (GC 1894),Streptococcus sp.; Streptococcus pneumoniae (GC 1894),1 µg/mL
same,MIC Streptococcus pneumoniae (GC 4565),Streptococcus sp.; Streptococcus pneumoniae (GC 4565),4 µg/mL
same,MIC Streptococcus pyogenes (GC 4563),Streptococcus sp.; Streptococcus pyogenes (GC 4563),8 µg/mL
same,MIC Streptococcus pneumoniae (ATCC 6301),Streptococcus sp.; strain ATCC 6301,2 µg/mL
same,MIC Streptococcus pneumoniae (GC 1894),Streptococcus sp.; strain GC 1894,1 µg/mL
same,MIC Streptococcus pyogenes (GC 4563),Streptococcus sp.; strain GC 4563,8 µg/mL
same,MIC Streptococcus agalactiae (GC 4564),Streptococcus sp.; strain GC 4564,8 µg/mL
same,MIC Streptococcus pneumoniae (GC 4565),Streptococcus sp.; strain GC 4565,4 µg/mL
